Experiments:
CCKA = target: T1, CCKA (Cavia porcellus, UniProt Q63931); assay: CCKA radioligand binding assay in guinea-pig pancreas membranes ([125I]-CCK8(S)); settings: PD134,308 present, 150 minutes at 21±3°
T1 construct: The pancreatata were homogenised in 40 ml ice-cold HEPES buffer using a polytron; from tissue; host or cells: pancreas membranes of male Dunkin Hartley guinea-pigs
T1 sequence (Q63931 1-430): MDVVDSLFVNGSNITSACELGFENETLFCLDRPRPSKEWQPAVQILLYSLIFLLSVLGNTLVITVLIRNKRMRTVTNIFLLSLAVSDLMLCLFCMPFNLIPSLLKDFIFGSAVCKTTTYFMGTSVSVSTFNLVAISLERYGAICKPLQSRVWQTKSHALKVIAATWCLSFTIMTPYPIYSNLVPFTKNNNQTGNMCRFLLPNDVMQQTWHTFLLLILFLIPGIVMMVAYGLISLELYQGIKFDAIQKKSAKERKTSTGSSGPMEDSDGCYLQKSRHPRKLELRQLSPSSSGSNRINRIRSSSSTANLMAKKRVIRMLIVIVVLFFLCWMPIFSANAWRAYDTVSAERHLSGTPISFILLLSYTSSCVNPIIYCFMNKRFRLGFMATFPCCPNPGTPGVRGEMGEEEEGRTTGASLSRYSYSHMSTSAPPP
Procedure, shortened: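 Male guinea-pig pancreas membranes (1 mg/ml wet tissue in HEPES pH 7.2, suspension containing 0.375 μM PD134,308) were incubated 150 min at 21±3° with [125I]-CCK8(S) ([…] added solution) and competitor. Non-specific binding used 100 nM L-364,718 (added solution). Bound radioligand was measured by GF/B filtration and gamma counting.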

gastrin = target: T2, gastrin (Rattus norvegicus, UniProt P30553); assay: gastrin antagonist activity in an immature rat stomach assay (pentagastrin-stimulated acid secretion); settings: cumulative pentagastrin dose-response curves after 60 min with drug; for Kb: read-out: Gastrin pKB (converted)
T2 construct: The stomach was lowered into a jacketed organ bath containing 40 ml of buffered solution; from tissue; host or cells: isolated perfused whole stomach of immature rats (ca. 21 days old)
T2 sequence (P30553 1-452): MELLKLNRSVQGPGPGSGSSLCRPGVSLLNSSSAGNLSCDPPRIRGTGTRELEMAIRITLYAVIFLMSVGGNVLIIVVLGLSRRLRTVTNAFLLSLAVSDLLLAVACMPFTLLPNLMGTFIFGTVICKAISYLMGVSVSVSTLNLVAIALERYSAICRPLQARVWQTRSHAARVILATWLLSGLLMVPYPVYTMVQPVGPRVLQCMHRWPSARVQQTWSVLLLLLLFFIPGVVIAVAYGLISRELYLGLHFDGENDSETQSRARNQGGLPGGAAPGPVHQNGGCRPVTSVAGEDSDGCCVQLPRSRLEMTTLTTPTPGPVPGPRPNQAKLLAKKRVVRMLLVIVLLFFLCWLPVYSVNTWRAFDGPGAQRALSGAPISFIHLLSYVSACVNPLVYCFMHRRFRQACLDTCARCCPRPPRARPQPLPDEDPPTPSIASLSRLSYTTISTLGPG
Experimental: The compounds of the examples were also tested for gastrin antagonist activity in an immature rat stomach assay. The procedure was as follows:
The oesophagus of immature rats (33-50 g, ca. 21 days old) was ligated at the level of the cardiac sphincter and the duodenal sphincter was cannulated. The stomach was excised and flushed with ca. 1 ml of unbuffered physiological saline solution. The fundus was punctured and cannulated. A further 4-5 ml of unbuffered solution was flushed through the stomach to ensure the preparation was not leaking. The stomach was lowered into a jacketed organ bath containing 40 ml of buffered solution containing 3×10^-8 M 5-methylfurmethide, maintained at 37° and gassed vigorously with 95% O2 /5% CO2. The stomach was continuously perfused at a rate of 1 ml min^-1 with unbuffered solution gassed with 100% O2 with the perfusate passing over an internally referenced pH-electrode fixed 12 cm above the stomach.
After 120 min of stabilisation the drugs were added directly to the serosal solution in the organ bath and after a further 60 min cumulative pentagastrin dose-response curves were started. Changes in acid secretion were monitored and the curves analysed according to Black et.al., Br. J. Pharmacol., 1985, 86, 581.

CCKB receptor = target: T3, CCKB receptor (Mus musculus, UniProt P56481); assay: CCKB receptor radioligand binding assay in mouse cortical membranes ([125I]-CCK8S); settings: [125I]-CCK8S 200 pM, 150 min at 21±3°; for Ki: read-out: CCKB pKi (converted)
T3 construct: The cortex was dissected, weighed and homogenised in 40ml ice-cold buffer; tissue Charles River (supplier of the CD1 mice); host or cells: cerebral cortex membranes of male CD1 mice
T3 sequence (P56481 1-453): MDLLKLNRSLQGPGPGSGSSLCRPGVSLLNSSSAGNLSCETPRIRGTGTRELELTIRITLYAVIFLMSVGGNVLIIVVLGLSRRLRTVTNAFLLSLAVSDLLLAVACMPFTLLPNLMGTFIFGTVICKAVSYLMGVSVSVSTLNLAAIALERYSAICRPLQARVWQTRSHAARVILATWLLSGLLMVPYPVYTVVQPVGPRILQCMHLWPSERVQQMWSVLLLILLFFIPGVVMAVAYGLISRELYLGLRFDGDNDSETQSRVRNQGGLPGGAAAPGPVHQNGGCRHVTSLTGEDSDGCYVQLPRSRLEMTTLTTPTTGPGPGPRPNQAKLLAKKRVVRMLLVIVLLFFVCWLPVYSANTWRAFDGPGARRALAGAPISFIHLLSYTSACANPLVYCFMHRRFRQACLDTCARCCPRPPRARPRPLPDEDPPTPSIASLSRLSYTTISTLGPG
Procedure, shortened: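 Cortical membranes from male CD1 mice in HEPES buffer (pH 7.2; NaCl, KCl, MgCl2, EDTA, bacitracin) were incubated with competing compound and [125I]-CCK8S (added as a 200 pM solution) for 150 min at 21±3°. Non-specific binding was defined with L-365,260. Bound tracer was separated by GF/B filtration and counted by gamma counting.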

CCKA pKi (CCKA)	Gastrin pKB (gastrin)	CCKB pKi (CCKB receptor)	Kb (gastrin)	Ki (CCKB receptor)	Ki (CCKA; read-out: CCKA pKi (converted))	Molecule
5.4	9.7	8.5				5-(1S-(3,5-dicarboxyphenylaminocarbonyl)-2-(3-fluorophenyl)ethylaminocarbonyl)-6-(1-adamantanemethylaminocarbonyl)-indole and regioisomer with substituents at positions 5 and 6 reversed [Example 28]
5.2	7.2	6.9				O=C(O)c1cc(NC(=O)[C@H](Cc2ccccc2)NC(=O)c2c(C(=O)NCC34CC5CC(CC(C5)C3)C4)ccc3[nH]cnc23)cc(C(=O)O)c1 [Example 113, 4-(1S-(3,5-dicarboxyphenylaminocarbonyl)-2-phenylethylaminocarbonyl)-5-(1-adamantanemethylaminocarbonyl)-benzimidazole]
5.6	8.7	8.7				CC(=O)n1ccc2cc(C(=O)N[C@@H](Cc3ccccc3)C(=O)Nc3cc(C(=O)O)cc(C(=O)O)c3)c(C(=O)NCC34CC5CC(CC(C5)C3)C4)cc21 [Example 44, 5-(1S-(3,5-dicarboxyphenylaminocarbonyl)-2-phenylethylaminocarbonyl)-6-(1-adamantanemethylaminocarbonyl)-N-acetyl-indole]
	7.1	7.5				5-(1S-(3,5-methoxyaminocarbonylphenylaminocarbonyl)-2-phenylethylaminocarbonyl)-6-(1-adamantanemethylaminocarbonyl)-indole and regioisomer with substituents at positions 5 and 6 reversed [Example 38]
	8.2	7.3				5-(1S-(3,5-dicarboxyphenylaminocarbonyl)-5-aminopentylaminocarbonyl)-6-(1-adamantanemethylaminocarbonyl)-indole and regioisomer with substituents at positions 5 and 6 reversed [Example 65]
			2 nM	63.1 nM		COC(=O)c1cc(NC(=O)[C@H](Cc2ccccc2)NC(=O)c2cc3cc[nH]c3cc2C(=O)NCC23CC4CC(CC(C4)C2)C3)cc(C(=O)OC)c1 [Example 35, 5-(1S-(3,5-dimethoxycarbonylphenylaminocarbonyl)-2-phenylethylaminocarbonyl)-6-(1-adamantanemethylaminocarbonyl)-indole]
			7.94 nM		7.94 µM	O=C(O)c1cc(NC(=O)[C@H](Cc2ccccc2C(F)(F)F)NC(=O)c2cc3[nH]cnc3cc2C(=O)NCC23CC4CC(CC(C4)C2)C3)cc(C(=O)O)c1 [Example 133, 5-(1S-(3,5-dicarboxyphenylaminocarbonyl)-2-(2-trifluoromethylphenyl)ethylaminocarbonyl)-6-(1-adamantanemethylaminocarbonyl)-benzimidazole]
			316 nM	1580 nM		C[C@@H](NC(=O)[C@H]1CCCN1C(=O)c1cc2ccccc2cc1C(=O)NCC12CC3CC(CC(C3)C1)C2)C(=O)O [Example 10, 2-(2R-(1R-carboxyethylaminocarbonyl)pyrrolidinocarbonyl)-3-(1-adamantanemethylaminocarbonyl)-naphthalene]
	9.1	8.4				O=C(O)c1cc(NC(=O)[C@H](Cc2ccccc2F)NC(=O)c2cc3[nH]cnc3cc2C(=O)NCC23CC4CC(CC(C4)C2)C3)cc(C(=O)O)c1 [Example 63, 5-(1S-(3,5-dicarboxyphenylaminocarbonyl)-2-(2-fluorophenyl)ethylaminocarbonyl)-6-(1-adamantanemethylaminocarbonyl)-benzimidazole]
			15.8 nM	20 nM		CC(=O)NS(=O)(=O)c1cccc(NC(=O)[C@H](Cc2ccccc2)NC(=O)c2cc3[nH]cnc3cc2C(=O)NCC23CC4CC(CC(C4)C2)C3)c1 [Example 137, 5-(1S-(3-acetylaminosulphonylphenylaminocarbonyl)-2-phenylethylaminocarbonyl)-6-(1-adamantanemethylaminocarbonyl)-benzimidazole]
			501 nM	251 nM		CN(CC12CC3CC(CC(C3)C1)C2)C(=O)c1cc2ccccc2cc1C(=O)N1CCC[C@@H]1C(=O)O [Example 9, 2-(2R-carboxypyrrolidino-carbonyl)-3-(1-adamantanemethyl(N-methyl)aminocarbonyl)-naphthalene]
			25.1 nM	10 nM		O=C(O)c1cc(NC(=O)[C@H](Cc2ccccc2)NC(=O)c2cc3c(cc2C(=O)NCC24CC5CC(CC(C5)C2)C4)[nH]c2ccccc23)cc(C(=O)O)c1 [Example 51, 3-(1S-(3,5-dicarboxyphenylaminocarbonyl)-2-phenylethylaminocarbonyl)-2-(1-adamantanemethylaminocarbonyl)-carbazole]
			316 nM	1000 nM		CN(CC12CC3CC(CC(C3)C1)C2)C(=O)c1cc2ccccc2cc1C(=O)N1CCC[C@@H]1C(=O)NCC(=O)O [Example 14, 2-(2R-carboxymethylaminocarbonylpyrrolidino-carbonyl)-3-(1-adamantanemethyl(N-methyl)aminocarbonyl)-naphthalene]
			398 nM	2000 nM		C[C@H](NC(=O)[C@H]1CCCN1C(=O)c1cc2ccccc2cc1C(=O)N(C)CC12CC3CC(CC(C3)C1)C2)C(=O)O [Example 13, 2-(2R-(1S-carboxyethylaminocarbonyl)pyrrolidinocarbonyl)-3-(1-adamantanemethyl(N-methyl)aminocarbonyl)-naphthalene]
			1260 nM	1260 nM		C[C@@H](NC(=O)[C@H]1CCCN1C(=O)c1cc2ccccc2cc1C(=O)N(C)CC12CC3CC(CC(C3)C1)C2)C(=O)O [Example 12, 2-(2R-(1R-carboxyethylaminocarbonyl)pyrrolidinocarbonyl)-3-(1-adamantanemethyl(N-methyl)aminocarbonyl)-naphthalene]

Molecule	CCKA pKi (CCKA)	Gastrin pKB (gastrin)	CCKB pKi (CCKB receptor)	Kb (gastrin)	Ki (CCKB receptor)	Ki (CCKA; read-out: CCKA pKi (converted))
1/2-(1-adamantanemethylaminocarbonyl)-naphthoic acid Regioisomer 1 [Example 21]	5.2	5.3				
